Literature values as cited in patent US20020068688A1, “Cleaning compositions” (Unilever Home & Personal Care USA, Division of Conopco, Inc., priority 2000, published 2002).

Details: grams of solid to form a saturated solution in 100 grams of water at 20° C.

Water Solubility: >100 g/100 g
SMILES: NC(N)=O [Urea]
